Source: patent publication US8530427B2, “Methods for modulating resistance to apoptosis using KLK6” (Mayo Foundation for Medical Education and Research, priority 2010, dated 2013)

Columns and labels:
murine splenocytes [1] = test: Splenocyte proliferation, CFSE labeling by flow cytometry; assay type: cell-based
murine splenocytes [2] = test: Murine splenocyte/lymphocyte cell death, PI labeling by flow cytometry; assay type: cell-based; conditions: resting conditions; 1 or 10 μg/mL at plating; 24 and 72 hours
Source text: The effect of KLK6 polypeptides on immune cell survival was examined using whole splenocyte populations derived from C57BL6/J or PAR1 deficient mice or using the Jurkat T-leukemic cell line (clone E6-1, TIB-152 American Type Culture Collection). Eight to 12 week old C57 mice were obtained from Jackson Laboratories. Mice deficient in PAR1^-/- (B6.129S4-[…]^tm1Ajc/J) were also obtained from Jackson and backcrossed to C57BL6/J for 10 generations such that C57 mice served as wild type controls in each experiment. Spleens were homogenized in RPMI-1640, red blood cells lysed with ammonium chloride buffer, and splenocytes cultured in tissue culture treated 96 well plates at a density of 7.5×10^5 cells/mL. All experiments were performed in serum free X-Vivo media (Lonza, Mapleton, Ill.) containing 2 mM Glutamax, 1 mM sodium pyruvate, 50 U/mL penicillin-streptomycin, 10 mM HEPES, 50 μM 2-β-mercaptoethanol, and 10 μM non-essential amino acids (Invitrogen). Jurkat T cells were maintained in log-phase growth in the same defined media. The cells were maintained at 37° C. in 95% air and 5% CO2. […] Cells were analyzed by flow cytometry using a FACSCalibur flow cytometer (BD Biosciences, Mountain View, Calif.). […] FlowJo software (Ashland, Oreg.) was used to quantify different cell populations in flow cytometry experiments. […]

[3] = system: Oli Neu oligodendrocyte cell line; test: Oli Neu oligodendrocyte cell death, PI flow cytometry; assay type: cell-based, murine; conditions: 0.5 μM; 18 hour exposure
Source text: KLK6 polypeptides promoted the survival of murine oligodendrocytes in a dose dependent fashion. […] Cell death was detected by PI labeling and quantitatively analyzed by flow cytometry.

[4] = system: U251 human glioblastoma cell line; test: U251 glioblastoma cell death / apoptosis by flow cytometry; assay type: cell-based; conditions: 1 μM
Method: The percent of cells labeled with propidium iodide (PI) after 24 hour exposure to staurosporine (1 μM) shown in histogram (FIG. 15A) was quantified by flow cytometry (FIG. 15B) and is taken as a measure of cell death. All samples were treated and analyzed in triplicate.
Levels of live (Annexin V− and Propidium iodide− (PI−)), early apoptotic (Annexin V+ and PI−), or dead (Annexin V+ and PI+) cells were determined by flow cytometry after a 24 hour period of exposure to 1 μM staurosporine (FIG. 16B) or staurosporine in the presence of 10 μg/mL KLK6 (FIG. 16C).
Dead cells were detected by labeling with 7-AAD. […] All expression data were normalized to the constitutively expressed gene GAPDH (*P<0.05, Students t-test).
KLK6 polypeptides promoted the survival of human glioma cells. […] Cell death was measured by flow cytometric detection of propidium iodide labeling.

| Compound | percent of divided cells (murine splenocytes [1]; 10 μg/mL, 24 hours post-stimulation) | proliferation (murine splenocytes [1]; lower concentrations, or 72 hours post-exposure) | cell death / cell survival (murine splenocytes [2]) | cell death induced by staurosporine [3] | cell death induced by staurosporine [4] |
| --- | --- | --- | --- | --- | --- |
| KLK1 polypeptides: recombinant kallikrein family member KLK1, produced in an identical fashion to KLK6 | significant increase in the percent of divided cells | Significant differences in proliferation were not seen | did not significantly impact cell survival | – | – |
| CN[C@@H]1C[C@H]2O[C@@](C)([C@@H]1OC)n1c3ccccc3c3c4c(c5c6ccccc6n2c5c31)C(=O)NC4 [staurosporine] | – | – | – | shown to promote death of the Oli Neu oligodendrocyte cell line | induced a considerable increase in cell death |
